From publication PMC6572618, “Anti-Trypanosomal and Antimalarial Properties of Tetralone Derivatives and Structurally Related Benzocycloalkanones” (Medicina, 2019)
Values joined by “and” are separate entries in the source; they are usually repeats but may differ in a detail not shown here. Identical values can stand only once. Like-named read-outs stand apart in the source and are kept apart here.

Columns and labels:
Type in all cases: cell-based
[1] = In vitro cytotoxicity assay (resazurin); conditions: human, HeLa cells; 20 µM compound, 24 h, % cell viability relative to untreated control; read-out: % Viability at 20 µM (SD) HeLa Cell
Protocol: (§1) As previously described, HeLa cells (Cellonex, Johannesburg, South Africa) were seeded in 96-well plates at a density of 2 × 10^4 cells/well in Dulbecco’s modified Eagle’s medium (DMEM) (Lonza, Basel, Switzerland) supplemented with 10% fetal calf serum and antibiotics (penicillin/streptomycin/amphotericin B) and incubated overnight at 37 °C in a 5% CO2 incubator. Compounds were added to the cells at a final concentration of 20 µM, and incubation continued for 24 h. The cell viability in the wells was assessed by adding 20 µL of resazurin reagent (0.135 mg/mL resazurin in phosphate-buffered saline) and reading the fluorescence (Ex560/Em590) after an additional 2–4 h incubation. The fluorescence readings were converted to % cell viability relative to the average readings obtained from the untreated control wells.
(§2) Thirty-five tetralone derivatives (see Figure 2) and six related benzocycloalkanones (see Figure 3) were evaluated in vitro against T. b. brucei for antitrypanosomal activity through the resazurin assay protocol. The compounds were also evaluated against the chloroquine-sensitive strain (3D7) of P. falciparum for antimalarial activity using pLDH assay and against the HeLa cell line for cytotoxicity evaluation using the resazurin assay protocol.

[2] = system: chloroquine sensitive strain of P. falciparum (3D7); assay: In vitro antiplasmodial assay (parasite lactate dehydrogenase, pLDH); conditions: for viability at 20 µM: Plasmodium falciparum, 3D7, 48 h, read-out: % Viability at 20 µM (SD) 3D7
Protocol: An antimalarial evaluation was performed against the chloroquine sensitive strain of P. falciparum (3D7) using the parasite lactate dehydrogenase (pLDH) assay as previously reported. Parasites were seeded at 2% parasitemia and 1% hematocrit in 96 well plates and were incubated with 20 µM of the test compounds for 48 h in culture medium consisting of Rosell Park Memorial Institute (RPMI 1640; Lonza, Basel, Switzerland) containing 25 mM 4-(2-hydroxyethyl)-1-piperazineethanesulfonic acid (HEPES), supplemented with 0.5% (w/v) Albumax II, 22 mM glucose, 0.65 mM hypoxanthine, 0.05mg/mL gentamicin, and 1% (v/v) human erythrocytes, at 37 °C under an atmosphere of 5% CO2, 5% O2, and 90% N2. The parasite lactate dehydrogenase activity in the wells was determined using the colorimetric assay method of Makler et al.. The absorbance readings were converted to % parasite viability relative to the wells containing untreated parasites.
as §2

[3] = system: 427 Trypanosoma brucei brucei trypomastigotes; assay: In vitro anti-trypanosomal assay (resazurin); conditions: 48 h; for viability at 20 µM / % Viability at 20 µM (SD) T.b. brucei: 20 µM compound, % parasite viability relative to untreated control; for viability at 20 µM: read-out: % Viability at 20 µM (SD) T.b. brucei; for IC50: three-fold serial dilutions from 100 µM, read-out: IC50 (µM) T. b. brucei
Protocol: The activity of the compounds against 427 Trypanosoma brucei brucei trypomastigotes was determined as previously described. Briefly, parasites were incubated in 96-well plates with 20 µM or three-fold serial dilutions (100 µM starting concentration) of test compounds in Iscove’s modified Dulbecco’s medium (IMDM) (Lonza, Basel, Switzerland) supplemented with 10% fetal calf serum, HMI-9 supplement, hypoxanthine, and penicillin/streptomycin at 37 °C in a 5% CO2 incubator. After 48 h, 20 µL of resazurin reagent (0.135 mg/mL resazurin in phosphate-buffered saline) was added to each well and the fluorescence (Ex560/Em590) read after 2–4 h in a Spectramax M3 plate reader (Molecular Devices, San Jose, CA, USA). The fluorescence readings were used to calculate % parasite viability relative to the readings obtained from the wells containing untreated control parasite cultures. The IC50 values were determined by plotting % viability vs. log(compound) and performing a non-linear regression using a GraphPad Prism (v. 5.02) (San Diego, CA, USA).
as §2

[4] = system: HeLa cells; assay: In vitro cytotoxicity assay (resazurin)
Protocol: as §1, §2

[5] = 20 µM compound, 48 h, P. falciparum 3D7, % parasite viability relative to untreated parasites
[6] = 20 µM compound, 24 h, % cell viability relative to untreated control

Row | SMILES | % Viability at 20 µM (SD) HeLa Cell [4, 6] | % Viability at 20 µM (SD) 3D7 ([2]; 20 µM) | % Viability at 20 µM (SD) T.b. brucei [3] | also measured
1 | N#Cc1cccc(/C=C2\CCc3ccccc3C2=O)c1 [Compound 1] |  |  |  | viability at 24 h, 20 µM [1]: 87%; viability at 20 µM [2, 5]: 113%; viability at 20 µM ([3]; Trypanosoma brucei): 0.06%; IC50 ([3]; Trypanosoma brucei): 2.3 µM
2 | N#Cc1cccc(/C=C2\CCc3ccc(N)cc3C2=O)c1 [Compound 2] | 77 (2) % | 110 (1) % | 95 (3) % | 
3 | O=C1/C(=C/c2ccccc2)CCc2ccccc21 [Compound 3] |  |  | 43 (3) % | % Viability at 20 µM (SD) HeLa Cell ([4]; 20 µM): 116 (5) %; % Viability at 20 µM (SD) 3D7 [2, 5]: 103 (2) %
4 | COc1ccc(/C=C2\CCc3ccccc3C2=O)cc1 [Compound 4] |  |  |  | viability at 24 h, 20 µM [1]: 76%; viability at 20 µM [2, 5]: 100%; viability at 20 µM ([3]; Trypanosoma brucei): 0.5%; IC50 ([3]; Trypanosoma brucei): 6.7 µM
5 | O=C1/C(=C/c2ccc(F)cc2)CCc2ccccc21 [Compound 5] | 100 (2) % | 107 (5) % |  | 
6 | O=C1/C(=C/c2cccc(F)c2)CCc2ccccc21 [Compound 6] |  |  |  | viability at 24 h, 20 µM [1]: 121%; viability at 20 µM [2, 5]: 131%; viability at 20 µM ([3]; Trypanosoma brucei): 0.5%; IC50 ([3]; Trypanosoma brucei): 3.1 µM
7 | O=C1/C(=C/c2ccccc2)CCc2cc(O)ccc21 [Compound 7] |  |  |  | viability at 24 h, 20 µM [1]: 54%; viability at 20 µM [2, 5]: 89%; % Viability at 20 µM (SD) T.b. brucei ([3]; 20 µM): 0.6 (0.2) %; viability at 20 µM ([3]; Trypanosoma brucei): 0.66%; IC50 ([3]; Trypanosoma brucei): 0.4 µM; IC50 [3]: 0.46 µM
8 | O=C1/C(=C/c2ccccc2)CCc2c(O)cccc21 [Compound 8] | 35 (1) % |  | 0.5 (0.1) % | 
9 | O=C1/C(=C/c2ccccc2)CCc2ccc(O)cc21 [Compound 9] | 9 (0.1) % | 101 (4) % | −4 (0.3) % | 
10 | COc1ccc2c(c1)C(=O)/C(=C/c1ccccc1)CC2 [Compound 10] |  |  |  | viability at 24 h, 20 µM [1]: 65%; viability at 20 µM [2, 5]: 113%; IC50 ([3]; Trypanosoma brucei): 1.04 µM
11 | Nc1ccc2c(c1)CC/C(=C\c1ccccc1)C2=O [Compound 11] | 86 (9) % | 111 (1) % |  | % Viability at 20 µM (SD) T.b. brucei ([3]; 20 µM): 95% and 97 (0.3) %
12 | O=C1/C(=C/c2ccc(F)cc2)CCc2ccc(O)cc21 [Compound 12] |  |  |  | viability at 24 h, 20 µM [1]: 29%; viability at 20 µM ([3]; Trypanosoma brucei): -0.6%; IC50 ([3]; Trypanosoma brucei): 0.6 µM; IC50 [3]: 0.68 µM
13 | O=C1/C(=C/c2cccc(F)c2)CCc2ccc(O)cc21 [Compound 13] | 21 (1) % | 13 (1) % | −0.9 (0.1) % | 
14 | O=C1/C(=C/c2ccc(Cl)cc2)CCc2ccc(O)cc21 [Compound 14] | 27 (2) % |  | 0.1 (0.1) % | 
15 | O=C1/C(=C/c2cccc(Cl)c2)CCc2ccc(O)cc21 [Compound 15] | 18 (0.4) % | −3 (6) % | 0.6 (0.01) % | 
16 | O=C1/C(=C/c2ccc(Br)cc2)CCc2ccc(O)cc21 [Compound 16] |  |  |  | viability at 24 h, 20 µM [1]: 62%; viability at 20 µM [2, 5]: 43%; viability at 20 µM ([3]; Trypanosoma brucei): 0.1%; IC50 ([3]; Trypanosoma brucei): 1.24 µM
17 | O=C1/C(=C/c2cccc(Cl)c2)CCc2ccccc21 [Compound 17] | 41 (13) % | 100 (9) % | 0.2 (0.3) % | 
18 | O=C1/C(=C/c2cccc(Br)c2)CCc2ccc(O)cc21 [Compound 18] | 26 (3) % | 99 (8) % | 1.2 (0.31) % | 
19 | O=C1/C(=C/c2ccc(O)cc2)CCc2ccc(O)cc21 [Compound 19] | 44 (4) % | 104 (12) % | 1 (0.2) % | 

Row | SMILES | % Viability at 20 µM (SD) HeLa Cell [4, 6] | % Viability at 20 µM (SD) 3D7 ([2]; 20 µM) | % Viability at 20 µM (SD) T.b. brucei [3] | also measured
20 | Cc1ccc(/C=C2\CCc3ccc(O)cc3C2=O)cc1 [Compound 20] |  |  |  | viability at 24 h, 20 µM [1]: 69%; viability at 20 µM [2, 5]: 116%; viability at 20 µM ([3]; Trypanosoma brucei): -0.4%; IC50 ([3]; Trypanosoma brucei): 5.3 µM
21 | CN(C)c1ccc(/C=C2\CCc3ccc(O)cc3C2=O)cc1 [Compound 21] | 51 (4) % | 142 (9) % | 25 (2) % | 
22 | O=C1/C(=C/c2ccc(Cl)c(Cl)c2)CCc2ccc(O)cc21 [Compound 22] | 5 (0.9) % | 81 (1) % | 0.9 (0.2) % | 
23 | COc1ccc(/C=C2\CCc3ccc(O)cc3C2=O)cc1 [Compound 23] | 25 (2) % | 88 (10) % | 0.2 (0.1) % | 
24 | O=C1/C(=C/c2ccc(Cl)cc2)CCc2ccccc21 [Compound 24] | 100 (3) % | 100 (8) % | 26 (8) % | 
25 | O=C1/C(=C/c2cccnc2)CCc2ccccc21 [Compound 25] | 24 (0.4) % | 29 (12) % | −0.7 (0.4) % | 
26 | COc1ccc2c(c1)C(=O)/C(=C/c1ccco1)CC2 [Compound 28] | 97 (9) % | 100 (3) % | 31 (5) % | 
27 | COc1ccc2c(c1)C(=O)/C(=C/c1ccc[nH]1)CC2 [Compound 29] | 97 (5) % | 115 (5) % | 103 (1) % | 
28 | COc1ccc2c(c1)C(=O)/C(=C/c1cccs1)CC2 [Compound 30] | 106 (2) % | 107 (6) % | 32 (9) % | 
29 | COc1ccc2c(c1)C(=O)/C(=C/c1cccnc1)CC2 [Compound 31] | 17 (4) % | 85 (12) % |  | 
30 | COc1ccc2c(c1)C(=O)/C(=C/c1ccccn1)CC2 [Compound 33] | 20 (0.6) % | 7 (8) % | −0.4 (0.2) % | 
31 | COc1ccc2c(c1)C(=O)/C(=C/c1cccnc1Cl)CC2 [Compound 34] | 47 (1.7) % | 113 (6) % | 98 (2) % | 
32 | O=C1/C(=C/c2ccc(Cl)cc2)Cc2ccccc21 [Compound 36] | 74 (10) % | 93 (3) % |  | % Viability at 20 µM (SD) T.b. brucei ([3]; 20 µM): 99 (0.1) %
33 | O=C1/C(=C/c2ccc(Cl)cc2)CCCc2ccccc21 [Compound 37] | 53 (10) % | 113 (0.6) % |  | % Viability at 20 µM (SD) T.b. brucei ([3]; 20 µM): 0.3 (0.3) %
34 | O=C1/C(=C/c2ccc(Cl)cc2)CSc2ccccc21 [Compound 39] | 8 (2) % | 11 (0.9) % |  | % Viability at 20 µM (SD) T.b. brucei ([3]; 20 µM): 0.3 (0.3) %
35 | O=c1c(Cc2ccc(Cl)cc2)coc2ccccc12 [Compound 40] | 103 (3) % | 90 (6) % |  | % Viability at 20 µM (SD) T.b. brucei ([3]; 20 µM): 94 (7) %
36 | O=c1c(Cc2ccc(Cl)cc2)csc2ccccc12 [Compound 41] | 109 (7) % | 107 (5) % |  | % Viability at 20 µM (SD) T.b. brucei ([3]; 20 µM): 103 (0.3) %
37 | N=C(N)c1ccc(OCCCCCOc2ccc(C(=N)N)cc2)cc1 [PE, pentamidine, reference compound] |  |  |  | IC50 ([3]; Trypanosoma brucei): 0.0042 µM
